Experimental data published in US20070249725A1, “Pharmaceutical formulations of sympathetic antagonist for the treatment of chronic muscle pain” (priority 2006, published 2007).
Counter-ions that a name gives are not always drawn.

What was measured:
[1] = Multicenter placebo-controlled dose response study of intramuscular PBZ: safety and tolerance (Example II); format: in vivo, human; settings: most frequent adverse event
[2] = cited from earlier work

CC(COc1ccccc1)N(CCCl)Cc1ccccc1 (centres unmarked) [Phenoxybenzamine Hydrochloride, phenoxybenzamine hydrochloride]
injection site pain, share of all adverse events [1]: 77% | irritation at the site of the injection [2]: irritation of the muscle at the site of the injection can occur
